# Legend:
# Assay type in all cases: cell-based
# LNCaP cells [1] = assay: Co-treatment with EZH2 inhibitor and ipatasertib, cell viability; conditions: co-treatment with AKT inhibitor ipatasertib
# Excerpt: (§1) FIGS. 5A-5C. […] Increased dependency on PRC2-mediated chromatin repression is observed with AKT inhibition, creating a therapeutic vulnerability. Co-treatment with AKTi and PRC2 inhibitors (such as EZH2 or EED inhibitors) results in synergistic effects.
# [2] = tested on: DHMC and non-DHMC cell lines; assay: Cell viability of DHMC and non-DHMC cancer cell lines treated with AKT inhibitors; conditions: DHMC vs non-DHMC cell lines, wide spectrum of cancer cell lines, in vitro
# Excerpt: FIGS. 2A, 2B. […] (2A) Cell viability curves for DHMC (black) and non-DHMC (light gray) cell lines treated with 3 different AKT inhibitors (afuresertib, AZD5363, ipatasertib). (2B) IC50s for DHMCs (black) and non-DHMCs (gray).
# MALME3 cells = assay: Co-treatment with EED inhibitor and ipatasertib
# Excerpt: as §1
# [3] = tested on: DHMC and non-DHMC cell lines; assay: Cell viability of DHMC and non-DHMC cancer cell lines treated with histone evicting anthracyclines; conditions: DHMC vs non-DHMC cell lines, wide spectrum of cancer cell lines
# LNCaP cells [4] = assay: Cell viability of solvent vs SAMe treated LNCaP cells in response to AKTi (ipatasertib); conditions: prolonged treatment with methyl donor SAMe vs solvent
# Excerpt: (§2) FIGS. 4A, 4B. Modulation of global DNA methylation changes the sensitivity to AKT inhibitors. (4A) Cell viability curves for solvent (circle) and SAMe (square) treated LNCaP cells. The difference in cell viability in response to AKTi (ipatasertib) treatment is shown. (4B) Decitabine (DAC) and GSK344862 results in sensitization.
# [5] = Sensitization to AKT inhibitors by pharmacologically induced DNA hypomethylation (DNMT inhibitors); conditions: pharmacologically induced DNA hypomethylation with DNMT inhibitor
# Excerpt: as §2
compound,measurement,setting,value
CC[C@H](C)n1cc(C)c2c(C(=O)NCc3c(C)cc(C)[nH]c3=O)cc(-c3ccc(N4CCNCC4)nc3)cc21 [GSK126],Interaction with ipatasertib (cell viability),LNCaP cells [1],synergistic reduction in cell viability
"NC1(C(=O)N[C@@H](CCO)c2ccc(Cl)cc2)CCN(c2nc[nH]c3nccc2-3)CC1 [AZD5363, Capivasertib]","Sensitivity of DHMC compared to non-DHMC (cell viability curves, IC50s)",[2],increased sensitivity
CN(C)[C@H]1CN(C2CCc3cccc(F)c32)C[C@@H]1c1ccc(N2CCN(S(C)(=O)=O)CC2)cc1 (stereo partly drawn) [A395],Interaction with ipatasertib,MALME3 cells,Synergistic interaction
CC[C@@]1(O)C[C@H](O[C@H]2C[C@H](N(C)C)[C@H](O[C@H]3C[C@H](O)[C@H](O[C@H]4CCC(=O)[C@H](C)O4)[C@H](C)O3)[C@H](C)O2)c2c(cc3c(c2O)C(=O)c2c(O)cccc2C3=O)[C@H]1C(=O)OC [aclarubicin],"Sensitivity of DHMC compared to non-DHMC (cell viability curves, IC50s)",[3],increased sensitivity
"C[S+](CC[C@H](N)C(=O)O)C[C@H]1O[C@@H](n2cnc3c(N)ncnc32)[C@H](O)[C@@H]1O (stereo partly drawn) [SAMe, S-Adenosylmethionine]",Change of sensitivity to AKTi (cell viability),LNCaP cells [4],decreases sensitivity to AKTi
dimethyl-doxorubicin,"Sensitivity of DHMC compared to non-DHMC (cell viability curves, IC50s)",[3],increased sensitivity
"Cn1ncc(Cl)c1-c1cc(C(=O)N[C@H](CN)Cc2cccc(F)c2)sc1Cl [afuresertib, Afuresertib]","Sensitivity of DHMC compared to non-DHMC (cell viability curves, IC50s)",[2],increased sensitivity
"CC(C)NC[C@@H](C(=O)N1CCN(c2ncnc3c2[C@H](C)C[C@H]3O)CC1)c1ccc(Cl)cc1 [ipatasertib, Ipatasertib]","Sensitivity of DHMC compared to non-DHMC (cell viability curves, IC50s)",[2],increased sensitivity
CCc1c(C#N)c(SC(C(N)=O)c2ccccc2)nc(N(C)C)c1C#N (stereo not drawn) [GSK-3484862],Change of sensitivity to AKT inhibitors (AKTi),[5],increases sensitivity to AKT inhibitors

# Source: US20250109444A1, “DNA HYPOMETHYLATION AS A PREDICTIVE MARKER FOR CANCER THERAPY” (Fred Hutchison Cancer Center, priority 2023, published 2025)
